From patent US8758816B2, “Compositions comprising azelastine and methods of use thereof” (priority 2004, dated 2014)

System: patients with seasonal allergic rhinitis (SAR)
Assay: MP 428 two-week randomized double-blind study: Total Nasal Symptom Score (TNSS), change from baseline
Type: in vivo, human
Design: key to Change from Baseline in AM TNSS, Mean / Change from Baseline in AM TNSS, LS Mean / Change from Baseline in AM TNSS, Median: TNSS sum of 4 symptoms each 0-3 (0=none, 3=severe); change from baseline
Method: A two-week, randomized, double-blind study, which evaluated the effects of the co-administration of ASTELIN® (azelastine hydrochloride (HCl)) and FLONASE® (fluticasone propionate) compared to either product alone in patients with seasonal allergic rhinitis (SAR) was conducted during the 2006 Texas mountain cedar season. After a 5-day placebo lead-in period, 151 patients with moderate-to-severe allergic rhinitis symptoms were randomized to either: (1) (49 total patients) ASTELIN® (azelastine hydrochloride (HCl)) plus placebo saline nasal spray 2 sprays per nostril, 15 minutes apart, twice daily (AM & PM); (2) (50 total patients) FLONASE® (fluticasone propionate) plus placebo saline nasal spray, 2 sprays per nostril, 15 minutes apart, once daily (AM) and two sessions of placebo saline nasal spray, 2 sprays per nostril, 15 minutes apart (PM); or (3) (52 total patients) the co-administration of ASTELIN® (azelastine hydrochloride (HCl)) 2 sprays per nostril plus FLONASE® (fluticasone propionate) 2 sprays per nostril (AM), 15 minutes apart, and ASTELIN® (azelastine hydrochloride (HCl)) 2 sprays per nostril plus placebo saline nasal spray, 15 minutes apart, (PM) for a 2-week double-blind treatment period.
The primary efficacy variable was the change from baseline in the Total Nasal Symptom Score (TNSS), which comprised sneezing, itchy nose, runny nose, and nasal congestion (individual symptoms scores were assigned a value between 0 and 3, where 0=no symptoms and 3=severe symptoms). This study was not statistically designed to assess the differences between ASTELIN® and FLONASE®.

[1] = Day 9, Intent-to-Treat Population
[2] = Day 10, Intent-to-Treat Population
[3] = Day 10, Per-Protocol Population
[4] = Day 11, Intent-to-Treat Population
[5] = Day 11, Per-Protocol Population
[6] = Day 12, Intent-to-Treat Population

For CCC(=O)O[C@]1(C(=O)SCF)[C@H](C)C[C@H]2[C@@H]3C[C@H](F)C4=CC(=O)C=C[C@]4(C)[C@@]3(F)[C@@H](O)C[C@@]21C [Fluticasone, fluticasone propionate], the “Change from Baseline in AM TNSS, Median” value [1] was −1.83, the “Change from Baseline in AM and PM Combined TNSS, Mean” value [1] was −5.08 and the “Change from Baseline in AM and PM Combined TNSS, Median” value [1] was −4.58. For the same compound, the “Change from Baseline in PM TNSS, LS Mean” value [1] was −2.73, the “Change from Baseline in PM TNSS, Mean” value [1] was −2.69 and the “Change from Baseline in PM TNSS, Median” value [1] was −2.00. For the same compound, the “Percent Change from Baseline in AM TNSS, LS Mean” value [1] was −24.94%, the “Percent Change from Baseline in AM TNSS, Mean” value [1] was −24.52% and the “Percent Change from Baseline in AM TNSS, Median” value [1] was −21.95%. For the same compound, the “Percent Change from Baseline in AM and PM Combined TNSS, LS Mean” value [1] was −26.50%, the “Percent Change from Baseline in AM and PM Combined TNSS, Mean” value [1] was −25.94% and the “Percent Change from Baseline in AM and PM Combined TNSS, Median” value [1] was −23.40%. For the same compound, the “Percent Change from Baseline in PM TNSS, LS Mean” value [1] was −27.82%, the “Percent Change from Baseline in PM TNSS, Mean” value [1] was −27.18% and the “Percent Change from Baseline in PM TNSS, Median” value [1] was −22.22%. The “Change from Baseline in AM and PM Combined TNSS, LS Mean” value (Day 9, Intent-to-Treat Population, ANCOVA model) was −5.17, the “Change from Baseline in AM and PM Combined TNSS, LS Mean” value (Day 9, Per-Protocol Population) was −5.21 and the “Change from Baseline in AM and PM Combined TNSS, Mean” value (Day 9, Per-Protocol Population) was −5.18. For the same compound, the “Change from Baseline in AM and PM Combined TNSS, Median” value (Day 9, Per-Protocol Population) was −4.58, the “Percent Change from Baseline in AM and PM Combined TNSS, LS Mean” value (Day 9, Per-Protocol Population) was −26.65% and the “Percent Change from Baseline in AM and PM Combined TNSS, Mean” value (Day 9, Per-Protocol Population) was −26.33%. The “Percent Change from Baseline in AM and PM Combined TNSS, Median” value (Day 9, Per-Protocol Population) was −23.40%, the “Change from Baseline in AM TNSS, LS Mean” value [2] was −2.74 and the “Change from Baseline in AM TNSS, Mean” value [2] was −2.73. For the same compound, the “Change from Baseline in AM TNSS, Median” value [2] was −2.80, the “Change from Baseline in AM and PM Combined TNSS, Mean” value [2] was −5.61 and the “Change from Baseline in AM and PM Combined TNSS, Median” value [2] was −4.83. The “Change from Baseline in PM TNSS, LS Mean” value [2] was −2.90, the “Change from Baseline in PM TNSS, Mean” value [2] was −2.88 and the “Change from Baseline in PM TNSS, Median” value [2] was −2.60. For the same compound, the “Percent Change from Baseline in AM TNSS, LS Mean” value [2] was −28.09%, the “Percent Change from Baseline in AM TNSS, Mean” value [2] was −28.06% and the “Percent Change from Baseline in AM TNSS, Median” value [2] was −28.36%. The “Percent Change from Baseline in AM and PM Combined TNSS, LS Mean” value [2] was −28.93%, the “Percent Change from Baseline in AM and PM Combined TNSS, Mean” value [2] was −28.76% and the “Percent Change from Baseline in AM and PM Combined TNSS, Median” value [2] was −27.10%. For the same compound, the “Percent Change from Baseline in PM TNSS, LS Mean” value [2] was −29.73%, the “Percent Change from Baseline in PM TNSS, Mean” value [2] was −29.48% and the “Percent Change from Baseline in PM TNSS, Median” value [2] was −27.27%. The “Change from Baseline in AM and PM Combined TNSS, LS Mean” value (Day 10, Intent-to-Treat Population, ANCOVA model) was −5.64, the “Change from Baseline in AM and PM Combined TNSS, LS Mean” value [3] was −5.70 and the “Change from Baseline in AM and PM Combined TNSS, Mean” value [3] was −5.74. For the same compound, the “Change from Baseline in AM and PM Combined TNSS, Median” value [3] was −4.83, the “Percent Change from Baseline in AM and PM Combined TNSS, LS Mean” value [3] was −29.19% and the “Percent Change from Baseline in AM and PM Combined TNSS, Mean” value [3] was −29.26%. For the same compound, the “Percent Change from Baseline in AM and PM Combined TNSS, Median” value [3] was −27.10%, the “Change from Baseline in AM TNSS, LS Mean” value [4] was −2.52 and the “Change from Baseline in AM TNSS, Mean” value [4] was −2.49. For the same compound, the “Change from Baseline in AM TNSS, Median” value [4] was −2.00, the “Change from Baseline in AM and PM Combined TNSS, Mean” value [4] was −5.77 and the “Change from Baseline in AM and PM Combined TNSS, Median” value [4] was −4.83. For the same compound, the “Change from Baseline in PM TNSS, LS Mean” value [4] was −3.33, the “Change from Baseline in PM TNSS, Mean” value [4] was −3.29 and the “Change from Baseline in PM TNSS, Median” value [4] was −3.00. The “Percent Change from Baseline in AM TNSS, LS Mean” value [4] was −25.25%, the “Percent Change from Baseline in AM TNSS, Mean” value [4] was −25.02% and the “Percent Change from Baseline in AM TNSS, Median” value [4] was −18.37%. For the same compound, the “Percent Change from Baseline in AM and PM Combined TNSS, LS Mean” value [4] was −29.71%, the “Percent Change from Baseline in AM and PM Combined TNSS, Mean” value [4] was −29.30% and the “Percent Change from Baseline in AM and PM Combined TNSS, Median” value [4] was −27.71%. The “Percent Change from Baseline in PM TNSS, LS Mean” value [4] was −34.15%, the “Percent Change from Baseline in PM TNSS, Mean” value [4] was −33.54% and the “Percent Change from Baseline in PM TNSS, Median” value [4] was −33.33%. The “Change from Baseline in AM and PM Combined TNSS, LS Mean” value (Day 11, Intent-to-Treat Population, ANCOVA model) was −5.85, the “Change from Baseline in AM and PM Combined TNSS, LS Mean” value [5] was −5.89 and the “Change from Baseline in AM and PM Combined TNSS, Mean” value [5] was −5.89. The “Change from Baseline in AM and PM Combined TNSS, Median” value [5] was −4.83, the “Percent Change from Baseline in AM and PM Combined TNSS, LS Mean” value [5] was −29.83% and the “Percent Change from Baseline in AM and PM Combined TNSS, Mean” value [5] was −29.69%. The “Percent Change from Baseline in AM and PM Combined TNSS, Median” value [5] was −27.71%, the “Change from Baseline in AM TNSS, LS Mean” value [6] was −2.99 and the “Change from Baseline in AM TNSS, Mean” value [6] was −2.98. For the same compound, the “Change from Baseline in AM TNSS, Median” value [6] was −2.75, the “Change from Baseline in AM and PM Combined TNSS, Mean” value [6] was −6.08 and the “Change from Baseline in AM and PM Combined TNSS, Median” value [6] was −5.17. The “Change from Baseline in PM TNSS, LS Mean” value [6] was −3.13, the “Change from Baseline in PM TNSS, Mean” value [6] was −3.10 and the “Change from Baseline in PM TNSS, Median” value [6] was −3.00. For the same compound, the “Percent Change from Baseline in AM TNSS, LS Mean” value [6] was −30.64%, the “Percent Change from Baseline in AM TNSS, Mean” value [6] was −30.49% and the “Percent Change from Baseline in AM TNSS, Median” value [6] was −26.83%. The “Percent Change from Baseline in AM and PM Combined TNSS, LS Mean” value [6] was −31.31%, the “Percent Change from Baseline in AM and PM Combined TNSS, Mean” value [6] was −31.04% and the “Percent Change from Baseline in AM and PM Combined TNSS, Median” value [6] was −27.78%. For the same compound, the “Percent Change from Baseline in PM TNSS, LS Mean” value [6] was −32.00% and the “Percent Change from Baseline in PM TNSS, Mean” value [6] was −31.52%.
